Reference: patent US20240190849A1, “AMINOPYRIMIDINE COMPOUNDS AND METHODS OF THEIR USE” (TYRA BIOSCIENCES, INC., priority 2021, published 2024)

Experiments:
[1] = tested on: KG-1 (Acute Myeloid Leukemia), FGFR1OP2-FGFR1 fusion; test: Cancer cell viability assay (Cell Titer-Glo), KG-1; assay type: cell-based; details: Homo sapiens, KG-1 cells, 72 hours
From the text: (§1) RT112/84, UM-UC-14, SNU-16 and KG-1 Cancer Cell Line Cell Viability Assays
(§2) To detect the change of intracellular ATP by Cell Titer-Glo@ and to evaluate the inhibitory effect of the compounds on cancer cell lines by determining the in vitro IC50 value of the compounds.
(§3) Cell Titer-Glo@ 2.0 Luminescent cell viability assay reagent was purchased from Promega (Madison, WI). RT112/84, SNU-16, and KG-1 cell lines were purchased from American Type Culture Collection (Manassas, VA). UM-UC-14 cell line was purchased from Sigma (St. Louis, MO). RT112/84, UM-UC-14, SNU-16, and KG-1 cells were cultured in RPMI1640 media supplemented with 10% fetal bovine serum. Cultures were maintained at 37° C. in a humidified atmosphere of 5% CO2 and 95% air.
(§4) Cell Viability Assay Procedure: Cells were plated in 96-well clear bottom/white plates (Corning #3903) at 10,000 cells/well in 100 μl of media, incubated overnight. The next day, test compound DMSO stock solutions were made at 10 mM and 2 μM final concentration. Compounds were then added to cells in a 9-dose, […] dilution series starting at 30 μM with an HP 300e Digital Dispenser (each dose was applied in triplicate). DMSO was backfilled to each well up to 301 nL total volume of test compound+DMSO, and a total of 301 nL DMSO was added to a control/no test compound well in triplicate. The cells in cell culture plates were incubated with the compounds at 37° C. and 5% CO2 for 72 hours. Then 50 μl of Cell Titer Glo 2.0 reagent was added to each well of the cell culture plates. The contents were covered from light and mixed on an orbital shaker at room temperature for 10 min. Luminescence was recorded by a Synergy H1 Microplate Reader (Biotek, Winooski, VT). Cells were assessed as a percentage of DMSO only treated control cells. Curves were plotted and IC50 values were calculated using the GraphPad Prism 8 program based on a sigmoidal dose-response equation (4 parameter).

FGFR3 = molecular target: T1, FGFR3 (Homo sapiens, UniProt P22607); test: Kinase binding assay (kinase-tagged T7 phage, affinity beads, qPCR readout), FGFR3; details: FGFR binding data
T1 construct: made in house; host or cells: E. coli derived from BL21, infected with T7 phage
T1 sequence (P22607 23-806): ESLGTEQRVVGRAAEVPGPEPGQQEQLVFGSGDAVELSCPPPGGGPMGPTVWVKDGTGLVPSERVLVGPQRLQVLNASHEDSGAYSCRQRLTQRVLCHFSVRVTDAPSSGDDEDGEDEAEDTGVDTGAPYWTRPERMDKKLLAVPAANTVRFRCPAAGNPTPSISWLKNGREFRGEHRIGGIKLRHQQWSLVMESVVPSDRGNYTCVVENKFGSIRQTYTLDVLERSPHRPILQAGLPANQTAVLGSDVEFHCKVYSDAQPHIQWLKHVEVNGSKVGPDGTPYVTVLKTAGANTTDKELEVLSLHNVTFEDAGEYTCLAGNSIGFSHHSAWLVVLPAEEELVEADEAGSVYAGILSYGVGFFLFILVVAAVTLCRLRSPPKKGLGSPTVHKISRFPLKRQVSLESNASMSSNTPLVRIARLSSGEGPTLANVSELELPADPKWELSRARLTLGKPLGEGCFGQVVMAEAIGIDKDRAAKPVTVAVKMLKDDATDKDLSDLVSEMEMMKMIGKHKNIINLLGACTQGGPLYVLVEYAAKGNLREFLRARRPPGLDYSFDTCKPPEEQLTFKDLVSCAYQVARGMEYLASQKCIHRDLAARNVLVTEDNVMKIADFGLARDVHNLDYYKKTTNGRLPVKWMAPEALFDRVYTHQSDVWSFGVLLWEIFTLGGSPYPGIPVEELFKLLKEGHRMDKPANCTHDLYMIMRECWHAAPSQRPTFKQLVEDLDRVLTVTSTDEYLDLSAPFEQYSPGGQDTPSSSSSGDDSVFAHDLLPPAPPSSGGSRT
Summary of the method: (§5)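 First, streptavidin beads were loaded with biotinylated ligand and blocked. Kinase, beads and compound were then shaken together for 1 hour at room temperature in SeaBlock/PBS/Tween/DTT buffer. Finally, eluted kinase was measured by qPCR and Kd fitted with Hill slope −1.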

FGFR2 = molecular target: T2, FGFR2 (Homo sapiens, UniProt P21802); test: Kinase binding assay (kinase-tagged T7 phage, affinity beads, qPCR readout), FGFR2; details: FGFR binding data
T2 construct: made in house; host or cells: E. coli derived from BL21, infected with T7 phage
T2 sequence (P21802 22-821): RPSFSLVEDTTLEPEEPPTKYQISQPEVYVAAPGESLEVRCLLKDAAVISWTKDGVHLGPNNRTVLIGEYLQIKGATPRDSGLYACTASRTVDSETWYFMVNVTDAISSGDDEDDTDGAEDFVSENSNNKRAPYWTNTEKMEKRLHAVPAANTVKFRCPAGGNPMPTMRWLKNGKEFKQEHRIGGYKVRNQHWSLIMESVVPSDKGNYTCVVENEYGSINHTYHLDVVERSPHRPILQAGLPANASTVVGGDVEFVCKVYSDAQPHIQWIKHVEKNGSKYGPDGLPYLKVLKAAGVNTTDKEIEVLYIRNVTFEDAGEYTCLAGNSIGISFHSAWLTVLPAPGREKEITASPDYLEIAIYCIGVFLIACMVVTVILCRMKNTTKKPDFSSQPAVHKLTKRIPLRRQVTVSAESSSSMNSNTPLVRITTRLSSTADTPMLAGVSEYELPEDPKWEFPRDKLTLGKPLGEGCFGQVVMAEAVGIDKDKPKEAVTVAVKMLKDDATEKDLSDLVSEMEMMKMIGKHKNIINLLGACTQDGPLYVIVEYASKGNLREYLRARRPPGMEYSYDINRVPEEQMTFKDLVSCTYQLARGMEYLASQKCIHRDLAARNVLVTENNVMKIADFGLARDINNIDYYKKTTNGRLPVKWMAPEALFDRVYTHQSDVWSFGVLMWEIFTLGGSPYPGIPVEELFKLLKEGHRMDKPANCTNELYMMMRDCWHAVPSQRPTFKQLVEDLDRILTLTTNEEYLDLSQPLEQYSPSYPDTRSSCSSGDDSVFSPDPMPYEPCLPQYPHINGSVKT
Summary of the method: as §5

[2] = tested on: UM-UC-14 (Bladder Cancer), FGFR3(S249C); test: Cancer cell viability assay (Cell Titer-Glo), UM-UC-14; assay type: cell-based; details: UMUC14, UM-UC-14 cells, 72 hours
From the text: as §1, §2, §3, §4

FGFR1 = molecular target: T3, FGFR1 (Homo sapiens, UniProt P11362); test: Kinase binding assay (kinase-tagged T7 phage, affinity beads, qPCR readout), FGFR1; details: FGFR binding data
T3 construct: made in house; host or cells: E. coli derived from BL21, infected with T7 phage
T3 sequence (P11362 22-822): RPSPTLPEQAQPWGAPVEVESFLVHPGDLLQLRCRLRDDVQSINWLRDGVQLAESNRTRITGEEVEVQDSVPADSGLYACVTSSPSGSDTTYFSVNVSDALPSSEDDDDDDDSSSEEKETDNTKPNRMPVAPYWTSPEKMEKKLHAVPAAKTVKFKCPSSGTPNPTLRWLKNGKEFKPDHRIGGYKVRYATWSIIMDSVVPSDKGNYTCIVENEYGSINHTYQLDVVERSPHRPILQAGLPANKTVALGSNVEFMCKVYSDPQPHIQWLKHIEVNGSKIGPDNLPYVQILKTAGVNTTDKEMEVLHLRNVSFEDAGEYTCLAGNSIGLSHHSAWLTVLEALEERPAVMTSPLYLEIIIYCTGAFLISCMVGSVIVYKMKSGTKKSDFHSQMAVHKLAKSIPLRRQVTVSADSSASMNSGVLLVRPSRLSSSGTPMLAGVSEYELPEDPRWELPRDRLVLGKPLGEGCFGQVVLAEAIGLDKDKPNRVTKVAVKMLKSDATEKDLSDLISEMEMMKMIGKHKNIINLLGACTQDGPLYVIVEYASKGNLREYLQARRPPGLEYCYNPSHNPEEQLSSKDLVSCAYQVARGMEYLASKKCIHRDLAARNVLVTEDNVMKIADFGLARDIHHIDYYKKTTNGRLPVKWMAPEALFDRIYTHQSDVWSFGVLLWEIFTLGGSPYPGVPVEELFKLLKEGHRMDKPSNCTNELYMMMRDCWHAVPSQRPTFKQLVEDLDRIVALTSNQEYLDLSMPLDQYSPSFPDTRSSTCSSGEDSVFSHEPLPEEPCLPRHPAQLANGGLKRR
Summary of the method: as §5

FGFR3 (V555M) = molecular target: T4, FGFR3 (V555M) (Homo sapiens, UniProt P22607, V555M); test: Kinase binding assay (kinase-tagged T7 phage, affinity beads, qPCR readout), FGFR3 (V555M); details: FGFR binding data
T4 construct: made in house; host or cells: E. coli derived from BL21, infected with T7 phage
T4 sequence (P22607 23-806 V555M): as the sequence (P22607 23-806) above, with V533M counted along it
Summary of the method: as §5

[3] = tested on: RT112/84 (Bladder Cancer), FGFR3-TACC3 fusion; test: Cancer cell viability assay (Cell Titer-Glo), RT112/84; assay type: cell-based; details: Homo sapiens, RT112/84 cells, 72 hours
From the text: as §1, §2, §3, §4

[4] = tested on: SNU-16 (Gastric Carcinoma), FGFR2 amplification; test: Cancer cell viability assay (Cell Titer-Glo), SNU-16; assay type: cell-based; details: Homo sapiens, SNU-16 cells, 72 hours, read-out: SNU16 FGFR2 (IC50 nM)
Summary of the method: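 Cells seeded at 10,000/well in RPMI1640 with 10% FBS, then exposed 72 h at 37° C. to a 9-point 10-fold dilution series from 30 μM, in triplicate. Viability read as ATP luminescence (CellTiter-Glo 2.0) as percent of DMSO control; IC50 from 4-parameter sigmoidal fit.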

Row | SMILES | IC50 [1] | Kd (FGFR3) | Kd (FGFR2) | IC50 [2] | Kd (FGFR1) | Kd (FGFR3 (V555M)) | IC50 [3] | IC50 [4]
1 | C=CC(=O)Nc1ccc2c(c1)c(C)cn2-c1nc(Nc2ccnn2C)ncc1Cl [Example 55, N-[1-[5-chloro-2-[(2-methylpyrazol-3-yl)amino]pyrimidin-4-yl]-3-methyl-indol-5-yl]prop-2-enamide] | 0.1 to 100 nM | 0.1 to 100 nM | 0.1 to 100 nM | 0.1 to 100 nM | 0.1 to 100 nM | 0.1 to 100 nM | 0.1 to 100 nM | –
2 | C=CC(=O)Nc1ccc2c(ccn2-c2nc(Nc3cccc(OCCN4CCOCC4)c3)ncc2Cl)c1C [Example 7, N-[1-[5-chloro-2-[3-(2-morpholinoethoxy)anilino]pyrimidin-4-yl]-4-methyl-indol-5-yl]prop-2-enamide] | 250 to 1000 nM | 100 to 250 nM | 100 to 250 nM | > 1000 nM | 0.1 to 100 nM | 0.1 to 100 nM | > 1000 nM | –
3 | C=CC(=O)Nc1ccc2c(c1)c(C)cn2-c1nc(Nc2cnn(C)c2C)ncc1Cl [Example 40, N-[1-[5-chloro-2-[(1,5-dimethylpyrazol-4-yl)amino]pyrimidin-4-yl]-3-methyl-indol-5-yl]prop-2-enamide] | 0.1 to 100 nM | 0.1 to 100 nM | 0.1 to 100 nM | 0.1 to 100 nM | 0.1 to 100 nM | 0.1 to 100 nM | 0.1 to 100 nM | –
4 | C=CC(=O)Nc1ccc2c(c1)c(C)cn2-c1nc(Nc2ccc(OC)c(OC)c2)ncc1Cl [Example 23, N-[1-[5-chloro-2-(3,4-dimethoxyanilino)pyrimidin-4-yl]-3-methyl-indol-5-yl]prop-2-enamide] | 0.1 to 100 nM | 0.1 to 100 nM | 0.1 to 100 nM | 0.1 to 100 nM | 0.1 to 100 nM | 0.1 to 100 nM | 0.1 to 100 nM | –
5 | C=CC(=O)Nc1ccc2c(c1)c(C)cn2-c1nc(Nc2ccc(OCCN3CCOCC3)cc2)ncc1C [Example 19, N-[3-methyl-1-[5-methyl-2-[4-(2-morpholinoethoxy)anilino]pyrimidin-4-yl]indol-5-yl]prop-2-enamide] | 0.1 to 100 nM | 0.1 to 100 nM | 0.1 to 100 nM | 0.1 to 100 nM | 0.1 to 100 nM | 0.1 to 100 nM | 0.1 to 100 nM | –
6 | C=CC(=O)Nc1ccc2c(-c3nc(Nc4ccc(N5CCOCC5)cc4)ncc3Cl)cn(C)c2c1 [Example 27, N-[3-[5-chloro-2-(4-morpholinoanilino)pyrimidin-4-yl]-1-methyl-indol-6-yl]prop-2-enamide] | 0.1 to 100 nM | 0.1 to 100 nM | 0.1 to 100 nM | 0.1 to 100 nM | 0.1 to 100 nM | 0.1 to 100 nM | 0.1 to 100 nM | –
7 | C=CC(=O)Nc1ccc2c(ccn2-c2nc(Nc3ccc(OCCN4CCOCC4)cc3)ncc2Cl)c1 [Example 10, N-[1-[5-chloro-2-[4-(2-morpholinoethoxy)anilino]pyrimidin-4-yl]indol-5-yl]prop-2-enamide] | 0.1 to 100 nM | 0.1 to 100 nM | 100 to 250 nM | 0.1 to 100 nM | 100 to 250 nM | 0.1 to 100 nM | 0.1 to 100 nM | –
8 | C=CC(=O)Nc1ccc2c(c1)c(C)cn2-c1nc(Nc2cn(C)nc2C)ncc1Cl [Example 35, N-[1-[5-chloro-2-[(1,3-dimethylpyrazol-4-yl)amino]pyrimidin-4-yl]-3-methyl-indol-5-yl]prop-2-enamide] | 0.1 to 100 nM | 0.1 to 100 nM | 0.1 to 100 nM | 0.1 to 100 nM | 0.1 to 100 nM | 0.1 to 100 nM | 0.1 to 100 nM | –
9 | C=CC(=O)Nc1cnc2c(c1)c(C)cn2-c1nc(Nc2ccnn2C)ncc1C [Example 85, N-[3-methyl-1-[5-methyl-2-[(2-methylpyrazol-3-yl)amino]pyrimidin-4-yl]pyrrolo[2,3-b]pyridin-5-yl]prop-2-enamide] | 0.1 to 100 nM | 0.1 to 100 nM | 0.1 to 100 nM | 0.1 to 100 nM | 0.1 to 100 nM | 0.1 to 100 nM | 0.1 to 100 nM | –
10 | C=CC(=O)Nc1ccc2c(c1)c(C)cn2-c1nc(Nc2cn(C)cn2)ncc1Cl [Example 28, N-[1-[5-chloro-2-[(1-methylimidazol-4-yl)amino]pyrimidin-4-yl]-3-methyl-indol-5-yl]prop-2-enamide] | 0.1 to 100 nM | 0.1 to 100 nM | 0.1 to 100 nM | 0.1 to 100 nM | 0.1 to 100 nM | 0.1 to 100 nM | > 1000 nM | –
11 | C=CC(=O)Nc1ccc2c(-c3ccnc(Nc4ccc(N5CCOCC5)cc4)n3)cn(C)c2c1 [Example 53, N-[1-Methyl-3-[2-(4-morpholino-anilino)pyrimidin-4-yl]indol-6-yl]prop-2-enamide] | 0.1 to 100 nM | 0.1 to 100 nM | 0.1 to 100 nM | 0.1 to 100 nM | 0.1 to 100 nM | 0.1 to 100 nM | – | 0.1 to 100 nM

More lines, now with the values ahead:

Row | IC50 [1] | Kd (FGFR3) | Kd (FGFR2) | IC50 [2] | Kd (FGFR1) | Kd (FGFR3 (V555M)) | IC50 [3] | IC50 [4] | SMILES
12 | – | 0.1 to 100 nM | 0.1 to 100 nM | 0.1 to 100 nM | 0.1 to 100 nM | 0.1 to 100 nM | 0.1 to 100 nM | 0.1 to 100 nM | C=CC(=O)Nc1ccc2c(c1)c(C)cn2-c1nc(Nc2cnn(CC(C)(C)O)c2)ncc1F [Example 181, N-[1-[5-fluoro-2-[[1-(2-hydroxy-2-methyl-propyl)pyrazol-4-yl]amino]pyrimidin-4-yl]-3-methyl-indol-5-yl]prop-2-enamide]
13 | – | 0.1 to 100 nM | 0.1 to 100 nM | 0.1 to 100 nM | 0.1 to 100 nM | 0.1 to 100 nM | 0.1 to 100 nM | 0.1 to 100 nM | C=CC(=O)Nc1ccc2c(c1)c(CC)cn2-c1nc(Nc2cnn(C)c2)ncc1C [Example 136, N-[3-ethyl-1-[5-methyl-2-[(1-methylpyrazol-4-yl)amino]pyrimidin-4-yl]indol-5-yl]prop-2-enamide]
14 | – | 0.1 to 100 nM | 0.1 to 100 nM | 0.1 to 100 nM | 0.1 to 100 nM | 0.1 to 100 nM | 0.1 to 100 nM | 0.1 to 100 nM | C=CC(=O)Nc1ccc2c(c1)c(C)cn2-c1nc(Nc2cnn(CCCO)c2)ncc1F [Example 160, N-[1-[5-fluoro-2-[[1-(3-hydroxypropyl)pyrazol-4-yl]amino]pyrimidin-4-yl]-3-methyl-indol-5-yl]prop-2-enamide]
15 | – | 0.1 to 100 nM | 0.1 to 100 nM | 0.1 to 100 nM | 0.1 to 100 nM | 0.1 to 100 nM | 0.1 to 100 nM | 0.1 to 100 nM | C=CC(=O)Nc1ccc2c(c1)c(C)cn2-c1nc(Nc2cnn(CCOC)c2)ncc1F [Example 163, N-[1-[5-fluoro-2-[[1-(2-methoxyethyl)pyrazol-4-yl]amino]pyrimidin-4-yl]-3-methyl-indol-5-yl]prop-2-enamide]
16 | – | 0.1 to 100 nM | 0.1 to 100 nM | 0.1 to 100 nM | 0.1 to 100 nM | 0.1 to 100 nM | 0.1 to 100 nM | 0.1 to 100 nM | C=CC(=O)Nc1ccc2c(c1)c(C)cn2-c1nc(Nc2cnn(CCO)c2)ncc1C [Example 121, N-[1-[2-[[1-(2-hydroxyethyl)pyrazol-4-yl]amino]-5-methyl-pyrimidin-4-yl]-3-methyl-indol-5-yl]prop-2-enamide]
17 | – | 0.1 to 100 nM | 0.1 to 100 nM | 0.1 to 100 nM | 0.1 to 100 nM | 0.1 to 100 nM | 0.1 to 100 nM | 0.1 to 100 nM | C=CC(=O)Nc1ccc2c(c1)c(C)cn2-c1nc(Nc2cn(C)nc2C)ncc1F [Example 167, N-[1-[2-[(1,3-Dimethylpyrazol-4-yl)amino]-5-fluoro-pyrimidin-4-yl]-3-methyl-indol-5-yl]prop-2-enamide]
18 | 0.1 to 100 nM | 0.1 to 100 nM | 0.1 to 100 nM | 0.1 to 100 nM | 0.1 to 100 nM | 0.1 to 100 nM | – | 0.1 to 100 nM | C=CC(=O)Nc1ccc2c(c1)c(C)cn2-c1nc(Nc2cnn(C)c2C)ncc1F [Example 146, N-[1-[2-[(1,5-dimethylpyrazol-4-yl)amino]-5-fluoro-pyrimidin-4-yl]-3-methyl-indol-5-yl]prop-2-enamide]
